Measurements reported in publication PMC4578769, “Development of a Fluorescence-based Trypanosoma cruzi CYP51 Inhibition Assay for Effective Compound Triaging in Drug Discovery Programmes for Chagas Disease” (PLoS Neglected Tropical Diseases, 2015).
Where two headings read alike, the source gives them in different places.

Legend:
[1] = target: T1, T. cruzi CYP51 (Tulahuen strain) (Trypanosoma cruzi, UniProt Q7Z1V1); experiment: biochemical; format: biochemical; conditions: for inhibition of T. cruzi CYP51 (in words): known CYP450 inhibitors
T1 construct: ompA leader (N); host or cells: E. coli JM109 (membrane fraction, bactosomes)
Method: E. coli membrane fractions containing the T. cruzi CYP51 (Tulahuen strain) (Bactosomes) were provided by Cypex Ltd.
For each concentration of test compound the rate of fluorescence units per minute was calculated as a percentage of the average rate of the solvent only control wells.
The percentage of solvent control values was then plotted against the concentration range. Using the following 4 parameter fit equation, an IC50 value can be determined.
y=Range/1+(x/IC50)^s+Background
With kinetic parameters established, a microtitre-based assay to measure inhibition of recombinantly expressed T. cruzi CYP51 by test compounds was then implemented. […] Incubations containing 37 pmoles/mL of T. cruzi CYP51 in bactosomes, 100 μM BOMCC, 10, 3.3, 1.0, 0.33, 0.1, 0.033 or 0.01 μM test compound (2% v/v solvent) in 50 mM potassium phosphate buffer (pH 7.4), were pre-incubated at 37°C for 5 minutes. Upon addition of NADPH regenerating system (7.8 mg [[…]] glucose-6-phosphate, 1.7 mg [[…]] NADP, 6 units/mL glucose-6-phosphate dehydrogenase in 2% w/v sodium bicarbonate buffer) production of fluorescent metabolite CHC was measured (Exc 410 nm, Em 460 nm) at 1 minute intervals over a 10 minute period. Rates of metabolite production per minute were compared to uninhibited controls and plotted against test compound concentration to obtain an IC50.

T. cruzi = conditions: cited from earlier work; for re-emergence of parasitaemia once dosing has been completed: clinical trial, patients

T1 sequence (Q7Z1V1 whole entry): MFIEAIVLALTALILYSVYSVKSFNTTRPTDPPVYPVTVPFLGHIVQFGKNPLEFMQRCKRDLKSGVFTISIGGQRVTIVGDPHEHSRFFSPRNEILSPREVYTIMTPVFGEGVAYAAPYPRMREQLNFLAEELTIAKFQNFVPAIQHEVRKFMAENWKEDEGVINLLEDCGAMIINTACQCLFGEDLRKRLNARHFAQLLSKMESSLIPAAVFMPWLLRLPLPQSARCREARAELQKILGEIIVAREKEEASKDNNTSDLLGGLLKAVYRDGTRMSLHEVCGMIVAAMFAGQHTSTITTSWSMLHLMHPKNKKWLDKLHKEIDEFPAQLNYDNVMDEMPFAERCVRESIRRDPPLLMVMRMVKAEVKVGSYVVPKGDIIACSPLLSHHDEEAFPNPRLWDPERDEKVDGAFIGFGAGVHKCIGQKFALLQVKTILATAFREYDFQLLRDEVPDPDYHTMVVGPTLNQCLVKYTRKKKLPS

Structure (SMILES) | IC50 [1] | inhibition of T. cruzi CYP51 (in words) [1] | also measured
Cc1nc2c([nH]1)c(=O)n(C)c(=O)n2Cc1ccco1 [Furafylline] | > 8 µM | did not appear to inhibit | 
CCC(C)n1ncn(-c2ccc(N3CCN(c4ccc(OCC5COC(Cn6cncn6)(c6ccc(Cl)cc6Cl)O5)cc4)CC3)cc2)c1=O (centres unmarked) [Itraconazole] |  |  | curative activity in humans with chronic Chagas disease (T. cruzi): not demonstrated significant curative activity
CC(=O)N1CCN(c2ccc(OCC3COC(Cn4ccnc4)(c4ccc(Cl)cc4Cl)O3)cc2)CC1 (centres unmarked) [Ketoconazole] |  |  | curative activity in humans with chronic Chagas disease (T. cruzi): not demonstrated significant curative activity
Cn1cc[nH]c1=S [Methimazole] | > 8 µM |  | 
Clc1ccc(COC(Cn2ccnc2)c2ccc(Cl)cc2Cl)c(Cl)c1 (centres unmarked) [Miconazole] | 0.057 µM |  | 
CC[C@@H]([C@H](C)O)n1ncn(-c2ccc(N3CCN(c4ccc(OC[C@@H]5CO[C@@](Cn6cncn6)(c6ccc(F)cc6F)C5)cc4)CC3)cc2)c1=O [Posaconazole] |  |  | re-emergence of parasitaemia once dosing has been completed (T. cruzi): re-emergence of parasitaemia in two thirds of patients
C=C[C@H]1C[N@@]2CC[C@H]1C[C@@H]2[C@@H](O)c1ccnc2ccc(OC)cc12 [Quinidine] | > 8 µM | did not appear to inhibit | 
Nc1ccc(S(=O)(=O)Nc2ccnn2-c2ccccc2)cc1 [Sulphaphenazole] |  | did not appear to inhibit | IC50 ([1]; read-out: IC50 (μM), n = 3, 37 pmoles/mL T. cruzi CYP51 in bactosomes, 100 μM BOMCC, pH 7.4, 37°C, enzyme concentration defines minimum IC50 of approximately 0.02 μM): > 8 µM
Clc1ccccc1CN1CCc2sccc2C1 [Ticlopidine] | > 8 µM | did not appear to inhibit | 
C[C@@H](c1nc(-c2ccc(C#N)cc2)cs1)[C@](O)(Cn1cncn1)c1ccc(F)cc1F [ravuconazole] |  |  | re-emergence of parasitaemia once dosing has been completed (T. cruzi): re-emergence of parasitaemia in two thirds of patients
